Results published in patent publication US9873670B2, “Arylquinoline and analog compounds and use thereof to treat cancer” (UNIVERSITY OF KENTUCKY RESEARCH FOUNDATION, priority 2013, dated 2018).

Tests used:
vimentin = test: Pull-down with biotinylated arylquin to identify target protein; type: binding, mouse (MEFs), human (HEL); settings: lysates of MEFs and HEL cells, biotinylated analog
Protocol: Pull down experiments: To identify the target protein for compound Arylquin 1, pull-down experiments were performed as described previously. See Bargagna-Mohan, P., et al. J Biol Chem 285, 7657-7669 (2010). MEFs or HEL cells (grown to confluence in 15 cm plates) were lysed in […] lysis buffer (40 mM Hepes, pH 7.8; 140 mM NaCl; 10 mM NaF; 10% Glycerol, 1 mM EDTA; 1% Triton 100), and the lysates were pre-cleared at 4° C. for 1 h with 100 μL streptavidin beads (Novagen, Strep-Tactin Superflow Agarose). Binding reactions were performed by incubating the pre-cleared cell lysates with 50 μL beads±25 μg of biotinylated Arylquin 1 at 4° C. for 2 h. The beads were then washed four times with buffer (40 mM Hepes, pH 7.8; 140 mM NaCl; 10 mM NaF; 10% Glycerol, 1 mM EDTA), and bound protein was eluted with 50 μL of 2.5 mM Biotin/PBS. Eluted proteins were resolved by SDS-PAGE and Coomassie blue staining.

Par-4 in serum = test: Circulating Par-4 in serum of injected mice; type: in vivo, C57BL/6 mice; settings: 10 mg/kg intraperitoneal, 24 h
Protocol: Animal experiments: C57BL/6 mice were injected via the intraperitoneal route with Arylquin 1 (10 mg/kg body weight) or corn oil vehicle, and whole-blood samples were collected 24 h later. Serum was separated from the blood samples, heated at 56° C. to inactivate complement. Aliquots of the mouse serum samples were added to the growth medium (final 20% mouse serum) of normal and cancer cells in culture and tested for induction of ex vivo apoptosis in cancer cells. All animal procedures were performed with University of Kentucky IACUC approval.

normal HEL cells = test: Apoptosis of normal cells in co-culture experiments; type: cell-based, human; settings: 500 nM
Protocol: (§1) See Hebbar, N., Wang, C. & Rangnekar, V. M. J Cell Phys 227, 3715-3721 (2012) and Shrestha-Bhattarai, T., Hebbar, N. & Rangnekar, V. M. Cancer Cell 24, 3-5 (2013). A total of three independent experiments were performed; and approximately 500 cells were scored in each experiment for apoptosis under a fluorescent microscope. Cell surface GRP78 expression on the cancer cell surface was quantified by FACS analysis in the Flow Cytometry Shared Resource Facility, Markey Cancer Center as previously described. See Hebbar, N., Wang, C. & Rangnekar, V. M. J Cell Phys 227, 3715-3721 (2012).

PC-3MM2 = test: Apoptosis, PC-3MM2 cells; type: cell-based, human; settings: 500 nM
Protocol: as §1

vimentin-deficient cells = test: Par-4 secretion from vimentin-deficient cells; type: cell-based
[1] = biological target: T1, binding of Par-4 to vimentin (Homo sapiens, UniProt P08670); test: Co-immunoprecipitation and immunocytochemistry of Par-4 and vimentin; type: cell-based; settings: cells treated with compound
T1 construct: the Par-4 antibody co-immunoprecipitated endogenous vimentin; endogenous in cells
Protocol: Co-Immunoprecipitation and Western blot analysis: Protein extracted from cell lysates was filtered, pre-cleared with 25 μL (bed volume) of protein G-Sepharose beads and immunoprecipitated with 1 μg of respective antibodies. The eluted proteins were resolved by SDS-PAGE, and subjected to Western blot analysis as described.

[2] = tested on: panel of lung tumor cells; test: Par-4 secretion from lung tumor cells; type: cell-based
[3] = tested on: normal/immortalized human cells; test: Par-4 secretion from normal/immortalized human cells; type: cell-based
Protocol: In another aspect, the subject technology provides assays for screening test compounds that interfere with vimentin binding to PAR-4 or which cause release of vimentin-bound PAR-4. In a typical assay, cells, such as HEL cells, are seeded onto an appropriate support, such as 60-mm plates containing supplemented growth medium (e.g., supplemented with 0.1% serum) at a desired confluency, such as 40-70% confluency, and treated with the test compound (e.g., 500 nM) or control vehicle. The cells are allowed to grow for a period of time, such as 24 hours, after which the conditioned medium (CM) is concentrated (e.g., concentrated 30× to 100 μl using Millipore tubes (Amicon Ultra centrifugal filters, Ultracel-10K) by 15 min centrifugation at 4500 rpm). The concentrated CM is then subjected to co-immunoprecipitation using detectably labeled PAR-4 and vimentin antibodies in the presence of various concentrations of purified PAR-4 and the precipitated proteins are resolved by SDS-PAGE and analyzed by Western blot analysis. The amount of immunoprecipitated PAR-4-vimentin complex is compared to that of control samples. For example, chemiluminescent signals may be quantified in the BIO-RAD Molecular Imager ChemiDoc XRS+Imaging system using Quantity One software. […]

[4] = tested on: cancer cells co-cultured with Par-4+/+ MEFs; test: Apoptosis in co-cultures of Par-4+/+ MEFs and cancer cells; type: cell-based
Protocol: Top: Cancer cells were co-cultured with MEFs and treated with Arylquin 1 (500 nM) or vehicle and tested for apoptosis. Bottom: Serum from mice injected with Arylquin 1 (Aq) or corn oil vehicle (V), was examined by Western blot analysis (not shown). Aliquots of serum from these mice were either directly added to the growth medium of cells in culture, or incubated with the indicated antibody, and then added to the growth medium of PC-3 MM2 cells to test for apoptosis.
as §1

DU145 cells = test: Apoptosis, DU145 cells; type: cell-based, human; settings: 500 nM
Protocol: as §1

T1 sequence (P08670 2-466 limits assumed): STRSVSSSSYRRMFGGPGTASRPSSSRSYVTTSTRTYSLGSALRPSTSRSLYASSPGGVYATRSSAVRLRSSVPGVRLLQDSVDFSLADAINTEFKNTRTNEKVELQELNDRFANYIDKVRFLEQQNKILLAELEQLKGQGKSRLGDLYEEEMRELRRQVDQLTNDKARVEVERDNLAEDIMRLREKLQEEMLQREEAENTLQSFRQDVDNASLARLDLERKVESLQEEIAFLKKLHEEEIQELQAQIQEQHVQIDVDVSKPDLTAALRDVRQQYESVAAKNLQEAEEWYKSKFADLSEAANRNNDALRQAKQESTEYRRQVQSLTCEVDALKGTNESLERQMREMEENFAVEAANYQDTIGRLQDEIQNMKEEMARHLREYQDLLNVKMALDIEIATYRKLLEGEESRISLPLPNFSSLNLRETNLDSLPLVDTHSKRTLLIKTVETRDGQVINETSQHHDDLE

Compound: CN(C)c1ccc2cc(-c3ccccc3F)c(N)nc2c1 [Arylquin 1, 3-(2-fluorophenyl)-N^7,N^7-dimethylquinoline-2,7-diamine]
- target protein identified by pull-down (vimentin): Vimentin was the primary target
- Par-4 secretion in serum relative to vehicle control (Par-4 in serum): 5 fold
- apoptosis of normal cells in co-culture (normal HEL cells): not normal HEL cells
- apoptosis (PC-3MM2): induced apoptosis
- Par-4 secretion (vimentin-deficient cells): did not further induce Par-4 secretion
- Par-4 co-immunoprecipitation and co-localization with vimentin [1]: neither Par-4 co-immunoprecipitation nor co-localization with vimentin
- vimentin expression [1]: not associated with inhibition of vimentin expression
- Par-4 secretion [2]: failed to induce the secretion of Par-4
- secretion of Par-4 from normal fibroblasts and epithelial cells ([3]; nanomolar concentrations): dose-dependent secretion of Par-4 at nanomolar concentrations
- Par-4 secretion ([3]; normal/immortalized human cells): induced robust secretion of Par-4
- apoptosis of cancer cells in co-culture ([4]; 500 nM, Par-4+/+ MEFs, relative to vehicle): resulted in apoptosis of the cancer cells
- paracrine apoptosis of lung cancer cells by Par-4 secreted from normal cells ([4]; p53-wild type, p53-deficient and oncogenic K-ras lung cancer cells): adequate to induce paracrine apoptosis
- apoptosis (DU145 cells): not in LNCaP or DU145 cells
